Source: patent publication US10287265B2, “Enantiomers of 8-hydroxyquinoline derivatives and the synthesis thereof” (AVIDIN Co. Ltd., priority 2015, dated 2019)
Entries after “also recorded” stand apart in the source; their conditions may differ.

How the values were obtained:
VEGF gene = experiment: Gene expression in primary astrocytes by qRT-PCR; type: cell-based, rat; details: in the cells
Procedure: (§1) Pure astrocyte culture was obtained from neonatal rats according to the protocol found in literature (Protocols for Neural Cell Culture 2001, pp 117-127. ch 9. Ruth Cole, Jean de Vellis. Preparation of Astrocyte, Oligodendrocyte, and Microglia Cultures from Primary Rat Cerebral Cultures). Astrocytes (1 million) were cultured in 100 mm TC-treated culture dishes (Orange Scientific, Belgium) in an incubator set at 37° C. and 5% CO2 with humid air. The R-enantiomeric derivative according to Example 2 was added to cells in two final concentrations: 330 nM and 1000 nM. Cells were also treated with 1000 nM PBT2 which bears the basic structure of the R-enantiomer according to Example 2 (8-hydroxy-quinoline ring) but contains conformational differences and was developed for the treatment of neurodegenerative disorders (Pub. No.: WO/2004/007461). Treatments were carried out with a 100 μM DMSO-based stock solution. Control cells were treated with the same amount of DMSO without the agent. Each treatment was conducted in three separate culture dishes. After treatment, cells were incubated at 37° C. for 3 h, then the medium was removed, cells were washed with PBS and total RNA was extracted from cells with the Accuzol™ Total RNA Extraction Solution (Bioneer, Daejeon, South Korea), according to the manufacturer's protocol. cDNA transcription was carried out with the High Capacity cDNA Reverse Transcription Kit (Life Technologies, Foster City, Calif., USA). During the test, the expression of four genes (PGK1, EPO, HMOX-1, VEGF) controlled by HIF1a was determined by qRT-PCR, with HPRT gene serving as a control. Relative expression of genes in treated samples was compared to untreated controls. The PCR was conducted with a LightCycler® Nano Instrument (Roche, Budapest, Hungary) in the presence of UPL (Universal Probe Library) probes (HPRT: 95, HMOX1: 4, EPO: 16, VEGF: 1, PGK1: 66), specific primers (HPRT1: 5′-gaccggttctgtcatgtcg-3′, HPRT2: 5′-[…]-3′; HMOX1-1: 5′-[…]-3′, HMOX1-2: 5′-ctgcagctcctcaaacagc-3′; EPO1: 5′-[…]-3′, EPO2: 5′-ccttctgcacagcccatt-3′; VEGF1: 5′-[…]-3′, VEGF2: 5′-[…]-3′; PGK1-1: 5′-[…]-3′, PGK1-2: 5′-gacttggctccattgtcca-3′) in 20 μl PCR reaction volume with 20 ng cDNA template and 10 μl Lightcycler DNA Probes Master (5×) Reagent Kit (Roche) according to the following protocol: activation of enzyme at 95° C. for 10 min, 50 cycles: denaturation at 95° C. for 15 sec, hybridization and polymerization, then detection at 60° C. for 30 sec.

EPO gene = experiment: Gene expression in primary astrocytes by qRT-PCR; type: cell-based, rat; details: 3 h, Example 2 at 330 nM and 1000 nM, PBT2 at 1000 nM
Procedure: as §1

PGK1 gene = experiment: Gene expression in primary astrocytes by qRT-PCR; type: cell-based, rat; details: in the cells
Procedure: as §1

HMOX-1 gene = experiment: Gene expression in primary astrocytes by qRT-PCR; type: cell-based, rat; details: 3 h, Example 2 at 330 nM and 1000 nM, PBT2 at 1000 nM
Procedure: as §1

[1] = test system: NF-AT (Nuclear Factor of Activated T Cells) protein; experiment: NF-AT transcriptional activity, β-galactosidase reporter in Jurkat cells induced by A23187 and PMA; type: cell-based, human
Procedure: Cells (3×10^6 cells/ml) were incubated with 10 μM compound according to Example 2 in RPMI-1640 medium (pH=7.4) for 20 min at 37° C. Following this, incubation lasted for an additional 4 h in the presence of 0.5 μM A23187 and 50 ng/ml PMA (12-O-tetradecanoylphorbol-13-acetate). Induced effects can be determined by the β-galactosidase activity of cells treated with the compound according to Example 2 and untreated cells as it catalyzes the transformation of FDG (fluorescein di-β-D-galactopyranoside) into fluorescein. Reading of results was carried out with a SpectraFluor Plus plate reader. Decrease of β-galactosidase activity was compared to the effect of 1 μM cyclosporine A which was served as a positive control.

C57BL6/J mice = experiment: Scopolamine-induced short-term memory impairment, Y maze test; type: in vivo, mouse; details: per os gavage; scopolamine 0.6 mg/kg i.p. 30 min prior to Y maze test
Procedure: In vivo experiments were carried out according to the National Institute of Health guidelines for the care and use of laboratory animals, approved by the French Ministry for Research and Technology. In the course of experiments, animals were housed at a standard temperature (22±1° C.) and in a light-controlled environment (lights on from 7 a.m. to 8 p.m.) with ad libitum access to food and water. Male C57BL/6 mice (C57BL/6J Rj, ref. SC-CJ-12w-M, Janvier, France) were housed 5 animals per cage. From one week before the start of the experiment until the end of the experiment, mice were housed individually. Animals were monitored twice-a-day by laboratory personnel (8 a.m. and 4 p.m.). In this project, young (14 weeks old) as well as aged (15-16 months old) mice were used. Experiments were carried out using 12 mice per experimental group.
Investigation of short-term working memory—Y maze test Y maze tests were carried out as previously described. Prior to testing, mice were brought to the experimental room for at least 30 min to acclimatize to experimental room conditions. […] Each arm entry was recorded with those entries being counted where the mouse completely placed its hind paws in the chosen arm. […] Results were calculated as the percentage of the ratio of actual detected alternations to possible alternations (defined as the number of total arm entries minus 2). […]

## Cc1ccnc(N[C@H](c2ccc(C(F)(F)F)cc2)c2ccc3cccnc3c2O)n1 [Example 2, 7-[(R)-[(4-Methylpyrimidin-2-yl)amino][4-(trifluoromethyl)phenyl]methyl]quinolin-8-ol]
VEGF gene
  increase of VEGF gene activity: capable to increase the gene activity
EPO gene
  activation of EPO gene expression: capable to increase the gene activity; also recorded: highest inductive effect; also recorded: dose-dependent and robust activation
PGK1 gene
  increase of PGK-1 gene activity: capable to increase the gene activity
HMOX-1 gene
  activation of HMOX-1 gene expression: capable to increase the gene activity; also recorded: caused the induction of HMOX-1 in astrocytes; also recorded: dose-dependent and robust activation
[1]
  inhibition of transcriptional induction regulated by NF-AT (concentration range in words): inhibits in micromolar concentration
[1]; Homo sapiens, Jurkat cells, 0.5 μM A23187 and 50 ng/ml PMA, 4 h, read-out: half-value concentration for reduction of the transcriptional activity of NF-AT protein
  IC50: 2200 nM
C57BL6/J mice
  inhibition of scopolamine-induced short-term memory impairment: inhibited
